Data on 21 molecules can be found in patent US20260297070A1, “CYCLIC [COMPOUND LEFT OUT] WRN INHIBITORS” (Nimbus Wadjet, Inc., priority 2023, published 2026).

Each structure is given as a SMILES string. pIC50: −log10 of the molar value.

For this assay, the target named is T1, human Werner helicase (WRN-BV08, Uniprot Q14191, amino acids 517-1235 with L1074F point mutation) (Homo sapiens, UniProt Q14191, L1074F).
T1 construct: Uniprot Q14191, amino acids 517-1235 with L1074F point mutation; TEV-cleavable 8×His (C, cleaved yes); made in house; host or cells: Sf9 insect cells (baculovirus)
Put plainly: WRN (BV08) ADP-Glo Assay. The assay is classed as biochemical. The conditions noted are these: 0.15 nM WRN, 5 μM ATP, 0.1 nM DNA duplex, 15 min preincubation, 60 min at 25° C., pH 7.5, 1% DMSO; read-out: ADP-Glo_hWRN_IC50. From the text: Example 2: WRN (BV08) ADP-Glo Assay Protocol
Bovine skin gelatin (BSG), dimethyl sulfoxide (DMSO), Pluronic F-127 and Tris(2-carboxyethyl)phosphine hydrochloride solution (TCEP) were purchased from Sigma-Aldrich at the highest level of purity possible. Bicine buffer solution was purchased from Alfa Aesar and compound NSC-617145 was purchased from Tocris. DNA duplex was synthesized at BGI (Shenzhen, China) and was composed of strand 1 with the sequence 5′-[…]-3′ (SEQ ID NO.: 1) and strand 2 with the sequence 5′-[…]-3′ (SEQ ID NO.: 2). DNA strands were annealed by heating to 95° C. for 5 minutes followed by slow cooling to room temperature. Compounds in 100% DMSO (0.1 μl) were spotted into a 384-well white polystyrene Optiplate-384 (Perkin Elmer) assay plate using a LabCyte Echo 550 (Agilent). DMSO (0.1 μl) was added to columns 12, rows A-H and column 24, rows I-P for the maximum signal control. Compound NSC-617145 (0.1 μl) was added to columns 12, rows I-P and 24, rows A-H for the minimum signal control (100% inhibition). Compounds/DMSO were preincubated for 15 minutes at 25° C. with 5 uL 2×WRN (BV08), prepared as described below, in assay buffer containing 20 mM Bicine (pH=7.5), 1 mM MgCl2, 10 mM KCl, 0.1% Pluronic F-127, 0.005% BSG, 1 mM TCEP. The reaction was initiated by the addition of 5 μl 2× substrate mixture in assay buffer and incubated for 60 minutes at 25° C. The final concentrations of the assay components were 0.15 nM WRN, 5 μM ATP, and 0.1 nM DNA duplex. The final DMSO concentration was 1% and the reference compound concentration (NSC-617145) used for the minimal signal control was 20 μM. The reaction was stopped by the addition of the ADP-Glo Kit components (Promega) as directed and the relative luminescence units (RLU) were read on an Envision 2104 (Perkin Elmer).
% Inhibition Calculation:
Where RLU=relative luminescence units, sample=signal in sample well, and MIN and MAX are the respective minimum and maximum signal controls.
Four-Parameter IC50 Fit Equation:
Where top and bottom are normally allowed to float but may be fixed at 100 or 0 respectively in a 3-parameter fit. Y is the % inhibition and X is the compound concentration.
Molecular Biology and virus production. The DNA encoding human Werner helicase (Uniprot Q14191, amino acids 517-1235 with L1074F point mutation) was generated with codon-optimization for E. coli expression and subcloned into the pFastBac vector with a TEV cleavable 8×His tag (WRN-BV08). The baculovirus from the expression plasmid WRN-BV08 was generated from transfection and amplification following the manufacturer's instructions.
Sf9 cells grown in SF900II media were infected with 1:200 WRN-BV08 P2 virus and incubated for protein expression for 72 h at 27° C. The WRN protein was purified using the following protocol. The cell pellets were thawed and resuspended in buffer A (50 mM Tris, pH 7.5, 500 mM NaCl, 1 mM TCEP, 10% Glycerol) supplemented with 0.5% CHAPS, 1 mM [COMPOUND LEFT OUT], 1 μg/mL Leupeptin, 1 μg/mL Pepstatin, and the Pierce Universal Nuclease and cocktail tablet. Cleared lysates were loaded onto a Ni Sepharose™ excel column and washed with buffer A and bound protein was eluted with buffer A supplemented with 300 mM imidazole. The eluted protein was dialyzed against buffer A and digested by His-tagged TEV (1:5 ratio) overnight at 4° C. ZnCl2 was added into the sample at final 15 μM before loading onto a second Ni Sepharose™ excel column. Untagged WRN protein was eluted from the column with buffer A supplemented with 20 mM imidazole, dialyzed overnight into buffer B (50 mM Tris, pH 7.5, 1 mM TCEP, 10% Glycerol) supplemented with 150 mM NaCl and loaded onto a Heparin column. Proteins were eluted with a step gradient of buffer B supplemented with 150 mM, 200 mM, 300 mM and 500 mM NaCl. […]
(ADP-Glo first removes unused ATP, then detects ADP through luciferase.)

T1 sequence (Q14191 with tags, fused parts or gaps L1074F limits assumed): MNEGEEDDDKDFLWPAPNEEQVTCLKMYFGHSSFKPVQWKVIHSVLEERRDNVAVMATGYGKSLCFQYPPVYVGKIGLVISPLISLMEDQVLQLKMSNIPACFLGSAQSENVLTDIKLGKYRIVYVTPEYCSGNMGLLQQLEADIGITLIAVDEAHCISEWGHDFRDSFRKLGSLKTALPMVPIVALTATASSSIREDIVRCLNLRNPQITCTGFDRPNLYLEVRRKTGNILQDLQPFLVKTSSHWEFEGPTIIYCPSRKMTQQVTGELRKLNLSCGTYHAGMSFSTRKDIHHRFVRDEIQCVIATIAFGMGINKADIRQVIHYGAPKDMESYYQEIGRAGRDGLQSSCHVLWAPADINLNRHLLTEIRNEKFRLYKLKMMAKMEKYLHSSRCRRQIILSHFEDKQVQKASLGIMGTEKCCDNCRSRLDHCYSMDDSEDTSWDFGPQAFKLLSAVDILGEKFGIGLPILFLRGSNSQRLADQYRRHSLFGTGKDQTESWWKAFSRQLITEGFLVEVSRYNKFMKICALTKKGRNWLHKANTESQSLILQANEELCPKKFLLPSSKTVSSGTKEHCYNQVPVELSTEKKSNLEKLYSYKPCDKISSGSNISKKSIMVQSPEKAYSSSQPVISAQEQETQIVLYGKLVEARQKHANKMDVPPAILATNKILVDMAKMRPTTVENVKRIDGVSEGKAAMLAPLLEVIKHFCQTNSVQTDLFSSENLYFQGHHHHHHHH

In the case of `COc1cc(CN(C(=O)C(OC2CS(=O)(=O)C2)c2ccc(-c3ccc(F)c(F)c3)cc2F)[C@@H]2C=CS(=O)(=O)C2)ccn1` (single isomer, unassigned) [I-835, (2R*)-2-[(1,1-dioxo-1lambda6-thietan-3-yl)oxy]-N-[(3R)-1,1-dioxo-2,3-dihydro-1lambda6-thiophen-3-yl]-N-[(2-methoxypyridin-4-yl)methyl]-2-{3,3′,4′-trifluoro-[1,1′-biphenyl]-4-yl}acetamide], the pIC50 was 5.00 to 5.30.

On to `CCN(CC)C(=O)C(C(=O)N(Cc1ccnc(C(C)(C)O)c1)C1C=CS(=O)(=O)C1)c1ccc(-c2ccc(F)c(F)c2)cc1F` (stereo not drawn) [I-62, N′-(1,1-dioxo-2,3-dihydro-1lambda6-thiophen-3-yl)-N,N-diethyl-N′-{[2-(2-hydroxypropan-2-yl)pyridin-4-yl]methyl}-2-{3,3′,4′-trifluoro-[1,1′-biphenyl]-4-yl}propanediamide], for which the pIC50 was more than 6.30.

On to `O=C(Nc1ccc(CC(=O)N(Cc2ccncc2)C2C=CS(=O)(=O)C2)cc1)C1CC1` (stereo not drawn) [I-448, N-(4-{[(1,1-dioxo-2,3-dihydro-1lambda6-thiophen-3-yl)[(pyridin-4-yl)methyl]carbamoyl]methyl}phenyl)cyclopropanecarboxamide], for which the pIC50 was less than 4.30.

Regarding `N#CCOc1ccc(CC(=O)N(Cc2ccncc2)C2C=CS(=O)(=O)C2)cc1` (stereo not drawn) [I-432, 2-[4-(cyanomethoxy)phenyl]-N-(1,1-dioxo-2,3-dihydro-1lambda6-thiophen-3-yl)-N-[(pyridin-4-yl)methyl]acetamide], the pIC50 was less than 4.30.

With `COc1cc(CN(C(=O)CCc2ccc(S(F)(F)(F)(F)F)cc2)C2C=CS(=O)(=O)C2)ccn1` (stereo not drawn) [I-343, N-(1,1-dioxo-2,3-dihydro-1lambda6-thiophen-3-yl)-N-[(2-methoxypyridin-4-yl)methyl]-3-[4-(pentafluoro-lambda6-sulfanyl)phenyl]propanamide], the pIC50 was 4.30 to 5.00.

For `O=C(Cc1ccc(-c2ccccc2)cn1)N(Cc1ccccc1)C1C=CS(=O)(=O)C1` (stereo not drawn) [I-341, N-benzyl-N-(1,1-dioxo-2,3-dihydro-1lambda6-thiophen-3-yl)-2-(5-phenylpyridin-2-yl)acetamide], the pIC50 was 4.30 to 5.00.

As for `COc1cc(CN(C(=O)Cc2ncc(-c3ccc(F)c(F)c3)cn2)C2C=CS(=O)(=O)C2)ccn1` (stereo not drawn) [I-198, 2-[5-(3,4-difluorophenyl)pyrimidin-2-yl]-N-(1,1-dioxo-2,3-dihydro-1lambda6-thiophen-3-yl)-N-[(2-methoxypyridin-4-yl)methyl]acetamide], the pIC50 is 5.30 to 6.30.

For `Cc1cccn1-c1ccc(CC(=O)N(Cc2ccnc(OCC(F)(F)F)c2)C2C=CS(=O)(=O)C2)c(F)c1` (stereo not drawn) [I-67, N-(1,1-dioxo-2,3-dihydro-1lambda6-thiophen-3-yl)-2-[2-fluoro-4-(2-methyl-1H-pyrrol-1-yl)phenyl]-N-{[2-(2,2,2-trifluoroethoxy)pyridin-4-yl]methyl}acetamide], the pIC50 is more than 6.30.

For `O=C(Cc1coc(-c2ccc(F)cc2)n1)N(Cc1ccncc1)C1C=CS(=O)(=O)C1` (stereo not drawn) [I-543, N-(1,1-dioxo-2,3-dihydro-1lambda6-thiophen-3-yl)-2-[2-(4-fluorophenyl)-1,3-oxazol-4-yl]-N-[(pyridin-4-yl)methyl]acetamide], the pIC50 was less than 4.30.

Consider `O=C(Cc1ccc(-c2nn[nH]n2)cc1)N(Cc1ccncc1)C1C=CS(=O)(=O)C1` (stereo not drawn) [I-370, N-(1,1-dioxo-2,3-dihydro-1lambda6-thiophen-3-yl)-N-[(pyridin-4-yl)methyl]-2-[4-(2H-1,2,3,4-tetrazol-5-yl)phenyl]acetamide], for which the pIC50 is less than 4.30.

Consider `CC(C)(O)c1cc(CN(C(=O)C(OC(F)F)c2ccc(-c3ccc(F)c(F)c3)cc2F)[C@@H]2C=CS(=O)(=O)C2)ccn1` (single isomer, unassigned) [I-632], for which the pIC50 was more than 6.30.

With `O=C(Cn1ncc2cc(C(F)(F)F)ccc21)N(Cc1ccncc1)C1C=CS(=O)(=O)C1` (stereo not drawn) [I-590, N-(1,1-dioxo-2,3-dihydro-1lambda6-thiophen-3-yl)-N-[(pyridin-4-yl)methyl]-2-[5-(trifluoromethyl)-1H-indazol-1-yl]acetamide], the pIC50 is 5.00 to 5.30.

As for `O=C(Cc1ccc(S(=O)(=O)C(F)F)cc1)N(Cc1ccncc1)C1C=CS(=O)(=O)C1` (stereo not drawn) [I-351, 2-(4-difluoromethanesulfonylphenyl)-N-(1,1-dioxo-2,3-dihydro-1lambda6-thiophen-3-yl)-N-[(pyridin-4-yl)methyl]acetamide], the pIC50 was 4.30 to 5.00.

As to `O=C(Cc1ccc(C(F)F)cc1)N(Cc1ccncc1)C1C=CS(=O)(=O)C1` (stereo not drawn) [I-317, 2-[4-(difluoromethyl)phenyl]-N-(1,1-dioxo-2,3-dihydro-1lambda6-thiophen-3-yl)-N-[(pyridin-4-yl)methyl]acetamide], the pIC50 was 4.30 to 5.00.

As to `COc1cc(CN(C(=O)C(OCCS(C)(=O)=O)c2ccc(-c3ccc(F)c(F)c3)cc2F)[C@@H]2C=CS(=O)(=O)C2)ccn1` (single isomer, unassigned) [I-702, (2R*)-N-[(3R)-1,1-dioxo-2,3-dihydro-1lambda6-thiophen-3-yl]-2-(2-methanesulfonylethoxy)-N-[(2-methoxypyridin-4-yl)methyl]-2-{3,3′,4′-trifluoro-[1,1′-biphenyl]-4-yl}acetamide], the pIC50 was 5.30 to 6.30.

In the case of `CCOc1cc(CN(C(=O)Cc2ccc(-n3cccc3)cc2)C2C=CS(=O)(=O)C2)ccn1` (stereo not drawn) [I-141, N-(1,1-dioxo-2,3-dihydro-1lambda6-thiophen-3-yl)-N-[(2-ethoxypyridin-4-yl)methyl]-2-[4-(1H-pyrrol-1-yl)phenyl]acetamide], the pIC50 was 5.30 to 6.30.

`CC(C)c1ccc(CC(=O)N(Cc2ccncc2)C2C=CS(=O)(=O)C2)cc1` (stereo not drawn) [I-197, N-(1,1-dioxo-2,3-dihydro-1lambda6-thiophen-3-yl)-2-[4-(propan-2-yl)phenyl]-N-[(pyridin-4-yl)methyl]acetamide]: the pIC50 was 5.30 to 6.30.

As for `COCCOC(C(=O)N(Cc1ccnc(C(C)(C)O)c1)[C@@H]1C=CS(=O)(=O)C1)c1ccc(S(F)(F)(F)(F)F)cc1` (single isomer, unassigned) [I-765], the pIC50 was 5.30 to 6.30.

Turning to `O=C(Cc1ccc(-c2ccc(F)cc2)cc1F)N(Cc1nc(C2CC2)cs1)C1C=CS(=O)(=O)C1` (stereo not drawn) [I-80, N-[(4-cyclopropyl-1,3-thiazol-2-yl)methyl]-2-{3,4′-difluoro-[1,1′-biphenyl]-4-yl}-N-(1,1-dioxo-2,3-dihydro-1lambda6-thiophen-3-yl)acetamide], the pIC50 is more than 6.30.

Regarding `O=C(Cc1cccc(C(F)(F)F)c1)N(Cc1ccncc1)C1C=CS(=O)(=O)C1` (stereo not drawn) [I-536, N-(1,1-dioxo-2,3-dihydro-1lambda6-thiophen-3-yl)-N-[(pyridin-4-yl)methyl]-2-[3-(trifluoromethyl)phenyl]acetamide], the pIC50 was less than 4.30.

Take `COc1cc(CN(C(=O)Cn2ncc(-c3ccc(F)c(F)c3)c2C)[C@@H]2C=CS(=O)(=O)C2)ccn1` [I-739, 2-[4-(3,4-difluorophenyl)-5-methyl-1H-pyrazol-1-yl]-N-[(3R)-1,1-dioxo-2,3-dihydro-1lambda6-thiophen-3-yl]-N-[(2-methoxypyridin-4-yl)methyl]acetamide]: the pIC50 is more than 6.30.
